Assay results published in patent publication US9388124B2, “Ingenol-3-acylates I” (LEO LABORATORIES LIMITED, priority 2010, dated 2016).

Key:
Assay type in all cases: cell-based
[1] = test system: Primary human epidermal keratinocytes, HeKa; assay: HeKa cytokine release (IL-8) assay; details: HEKa, 6 h, read-out: HeKa cytokine release (IL-8) Rel EC50 range
Method: HeKa Cytokine Release (IL-8) Assay:
Primary human epidermal keratinocytes, HeKa, were seeded (10.000 cells/well) in 96-well plates the day before the assay. Test compounds were diluted in DMSO (dimethyl sulfoxide) and further diluted in assay medium and pipetted into wells of 96 well-plates containing HeKa cells. The plates were incubated for 6 h at 37° C. in humidified air with 5% CO2. Plates were centrifuged briefly to spin down cells at 4° C., the supernatant was removed and analysed by Meso Scale Discovery (MSD) 4-spot cytokine assay (Pro-inflammatory II Ultra Sensitive kit, MSD, MD, USA). The MSD assay employs a sandwich immunoassay format where capture antibodies are coated in a patterned array on the bottom of the wells of a 4-Spot-Multi-MSD plate. Standard samples were incubated in the MULTI-SPOT plates as well, and the cytokine (IL-8) binds to its corresponding capture antibody spot. The cytokine level was quantitated on a SECTOR™ Imager using a cytokine-specific Detection Antibody labelled with MSD SULFO-TAG™ reagent.
(§1) Test compound titration curves were fitted to a four-parameter sigmoidal curve after normalizing the effect of the test compound to the effect of the positive control (1.5×10^−7 M PEP0005). Rel EC50 denotes the concentration of test compound producing an effect that is midway between the fitted top and bottom.

[2] = test system: PMN's (polymorphonuclear leukocytes); assay: Neutrophil oxidative burst assay; details: Leukocyte, 40 min, read-out: Neutrophil oxidative burst Rel EC50 range
Method: Neutrophil Oxidative Burst Assay:
PMN's (polymorphonuclear leukocytes) were isolated and purified from fresh buffy coats by sequential sedimentation, density centrifugation and lysis of contaminating erythrocytes. Buffy coats were incubated with 2% methocel for 30-45 min to differentially sediment red blood cells. The leukocyte-rich supernatant was transferred to lymphoprep tubes to remove mononuclear cells by density centrifugation (400×g, 30 min). The pellet was resuspended and any remaining erythrocytes lysed using 0.2% NaCl for 30 sec before restoring isotonicity by the addition of 1.2% NaCl. This step was repeated until the cell pellet appears relatively free of red blood cells. Cells were resuspended in DPBS (Dulbecco's Phosphate Buffered Saline) (w.o. Ca^2+, Mg^2+) and the concentration adjusted to 1.4×10^6 cells/ml in HBSS (Hanks Balanced Salt solution) (w Ca^2+, Mg^2+) containing 0.1% BSA (Bovine Serum Albumin) and 5 mM glucose just prior to assay initiation. Titrated reference and test compounds were pre-mixed with HE (Hydroethidine) (10 μM final assay concentration) before addition to 96-well plates containing 2.5×10^5 cells. Following 40 min incubation at RT, changes in the respiratory burst was estimated by measuring fluorescence at 579 nm (excitation: 485 nm) using an Envision plate reader.
as §1, with “(5×10^−7” for “(1.5×10^−7”, “bottom. Abs EC50 is the concentration of test compound that provokes a response corresponding to 50% of the maximal effect associated with the positive control (5×10^−7 M PEP0005).” for “bottom.”

[3] = test system: HeLa cells; assay: Necrosis assay; details: Homo sapiens, HeLa, 0.5 h, read-out: HeLa Necrosis EC50 range
Method: HeLa cells (ATCC CCL-002) were grown in minimal essential medium (Invitrogen catalog no. 42360) containing 10% fetal bovine serum, 100 IU/ml penicillin and 100 μg/ml streptomycin. 4,000-6,000 cells were seeded into 96-well black ViewPlates-plates, clear bottom, (Perkin Elmer) in 100 μl medium and incubated overnight. Compounds were dissolved and pre-diluted in DMSO in 96-well polypropylene plates (Greiner) in a concentration range of 15 μM to 600 μM. At the time of the experiment cell plates were placed on heating blocks at 37° C., medium was removed and 40 μl fresh, pre-warmed medium was added per well. Cells were incubated for 15 min before addition of compounds. In parallel, 3 μl of compounds were diluted with 197 μl growth medium on a Tecan freedom-EVO pipetting station using 250 μl/s pipetting speed, in order to ensure effective mixing of the highly concentrated compound solutions with the aqueous phase. These pre-dilution plates were then equilibrated on heating blocks at 37° C. for 10 min. 80 μl pre-diluted compound were transferred manually to the corresponding wells containing HeLa cells yielding compound concentrations of 10 μM to 400 μM. Control conditions were 1% DMSO in growth medium (100% viability) and 400 μM ingenol mebutate in growth medium (0% viability). Plates were incubated on the heating blocks at 37° C. for 30 min. At the end of the incubation 10 μl PrestoBlue reagent (Invitrogen) were added to each well, plates were sealed with black seal, followed by incubation at 37° C. for 10 min with gentle shaking (150 rpm). Subsequently, plates were placed at room temperature for 20-30 min. Plates were read immediately after on an Envision Fluorescence reader (Perkin Elmer) with excitation at 535 nm and emission at 630 nm. Test compound titration curves were fitted to a four-parameter sigmoidal curve after normalizing the effect of the test compound to the effect of the positive control (4 10^−4 M PEP0005/ingenol mebutate). AbsEC50 denotes the concentration of test compound producing 50% effect.

| Compound | EC50 [1] | EC50 [2] | EC50 [3] |
| --- | --- | --- | --- |
| CC1=C[C@]23C(=O)[C@@H](C=C(CO)[C@@H](O)[C@]2(O)[C@H]1OC(=O)C(C)C1CCCCC1)[C@H]1[C@@H](C[C@H]3C)C1(C)C (stereo partly drawn) [Compound 114, Ingenol 3-(2-cyclohexylpropanoate)] | < 20 nM | < 20 nM | 150000 to 350000 nM |
| CC1=C[C@]23C(=O)[C@@H](C=C(CO)[C@@H](O)[C@]2(O)[C@H]1OC(=O)CC(C)(C)C)[C@H]1[C@@H](C[C@H]3C)C1(C)C [Compound 108, Ingenol 3-(3,3-dimethyl-butanoate)] | 20 to 100 nM | < 20 nM | 150000 to 350000 nM |
